The values below come from patent US20130231377A1, “PACTAMYCIN ANALOGS AND METHODS OF USE” (State of Oregon acting by and through the state Board of …, priority 2010, published 2013).

In data set [1] the test system is Gram-positive and Gram-negative bacteria. As to the kind of experiment: Antibacterial agar diffusion and micro-dilution assays, all tested strains (Example 1). It is filed as cell-based, S. aureus, B. subtilis, P. aeruginosa, E. coli. The conditions noted are these: at the concentrations used. The protocol: (§1) The antibacterial activity of pactamycin and its analogs was determined by agar diffusion and micro-dilution assays. E. coli, P. aeruginosa, B. subtilis or M. smegmatis, and S. aureus were streaked on nutrient agar (Difco or Beckton-Dickinson) and grown overnight at 37° C. Colonies were transferred to nutrient broth and incubated at 37° C. for 24 hours. Turbidity of the inoculum was measured to a proper density at 600 nm (BioRad, SmartSpec 3000). For plate preparation, inoculum (500 μL) was mixed thoroughly with warm nutrient agar (50 mL) and poured to 25 mL square plates. The agar plates were allowed to solidify and dry for 30 min before assay. Sterile blank paper disks (Becton-Dickinson) were impregnated with pactamycin and its analogs (20 μL) at various concentrations and dried at room temperature. The disks were placed onto inoculated agar plates and incubated at 37° C. for 24 hours. In order to produce a contrast background of the inhibition zone, 0.25% MTT developing dye (1 mL) was added over the plates.
(§2) Micro-dilution assays were performed in 96-well plates. The compounds were serially diluted and added to the bacterial suspension at final concentrations of 1 mM-10 nM, or 0.5 mM-10 nM. After incubation at 37° C. for 24 hours, 0.25% MTT developing dye (50 μL) was added. Each assay was done in triplicate.

In data set [2] the test system is chloroquine-sensitive clone D6 of P. falciparum. As to the kind of experiment: Antimalarial activity assay, SYBR Green I fluorescence-based method. Format: cell-based, Plasmodium falciparum. To be noted: Plasmodium falciparum, D6, 72 h, P. falciparum D6, 72 hours. On the procedure:
(§3) An antimalarial activity assay was carried out at the Oregon Translational Research and Drug Development Institute (OTRADI). Two strains of P. falciparum were used. The chloroquine-sensitive clone D6, and chloroquine-resistant and MDR clone Dd2 was obtained from the Malaria Research and Reference Reagent Resource Center (MR4) (Manassas, Va.). The parasites were cultured according to the method of Trager and Jensen (Trager and Jensen, Science, 1976, 193:673-675), with minor modifications. The cultures were maintained in human erythrocytes (Lampire Biological Laboratories, Pipersville, Pa.), suspended at 2% hematocrit in RPMI 1640 (Sigma) containing 0.5% Albumax (Invitrogen), […] hypoxanthine (Lancaster), and 50 μg/L gentamicin (Invitrogen), and incubated at 37° C. under a gas mixture of 5% O2, 5% CO2, and 90% N2. In vitro antimalarial activity was determined by a SYBR Green I fluorescence-based method described previously by Smilkstein et al. (Smilkstein et al., Antimicrob. Agents Chemother., 2004, 48:1803-1806). Frozen stock solutions of each test drug (1 mM in DMSO) were thawed, warmed to 37° C., and mixed thoroughly prior to use. Drug solutions were serially diluted with culture medium, and distributed to asynchronous parasite cultures on 96-well plates in quadruplicate in a total volume of 100 μL to achieve 0.2% parasitemia with a 2% hematocrit in a total volume of 100 μL. Automated pipeting and dilution was carried using programmable Precision XS (Bio-Tek, Winooski, Vt.) and Sciclone ALH3000 (Caliper, Hopkinton, Mass.) robotic stations. The plates then were incubated for 72 hours at temperature and gas conditions described above. After incubation, 100 μL of lysis buffer with SYBR Green I was added to each well. The plates were incubated at room temperature for 1 h and then placed in a 96-well fluorescence plate reader (Synergy4, BioTek, Winooski, Vt.) with excitation and emission wavelength at 485 nm and 528 nm, respectively, for measurement of fluorescence. The 50% inhibitory concentration (IC50) was determined by non-linear regression analysis of logistic dose-response curves (GraphPad Prism software).

The test system of data set [3] is chloroquine-resistant and MDR clone Dd2 of P. falciparum. The data set is described as above. It is filed as cell-based, Plasmodium falciparum. To be noted: Plasmodium falciparum, DD2, 72 h, P. falciparum Dd2, 72 hours. On the procedure: as §3
A further data set concerns E. coli. As to the kind of experiment: Antibacterial agar diffusion assay (Example 2). Format: cell-based, Escherichia coli. On the procedure:
(§4) Antibacterial activity of pactamycin and its analogues was determined by an agar diffusion assay. E. coli, Pseudomonas aeruginosa, Mycobacterium smegmatis, and Staphylococcus aureus were streaked on nutrient agar (Difco) and grown overnight at 37° C. Colonies were transferred to nutrient broth and incubated at 37° C. for 24 hours. Turbidity of the inoculum was measured to a proper density at 600 nm (BioRad, SmartSpec 3000). For plate preparation, inoculum (500 μL) was mixed thoroughly with warm nutrient agar (50 mL) and poured to 25 mL square plates. The agar plates were allowed to solidify and dry for 30 minutes before assay. Sterile blank paper disks (Becton-Dickinson) were impregnated with pactamycin and its analogues (20 μL) at various concentrations and dried at room temperature. The disks were placed onto inoculated agar plates and incubated at 37° C. for 24 hours. In order to produce a contrast background of the inhibition zone, 0.25% MTT developing dye (1 mL) was added over the plates.
In general terms: Agar diffusion results depend on both activity and mobility in agar.

Data set [4] deals with Pseudomonas aeruginosa. As to the kind of experiment: Antibacterial agar diffusion assay (Example 2). It is filed as cell-based. On the procedure:
as §4

The test system of a further data set is Mycobacterium smegmatis. As to the kind of experiment: Antibacterial agar diffusion assay (Example 2). It is filed as cell-based. On the procedure:
as §4

For data set [5], the system named is Staphylococcus aureus. As to the kind of experiment: Antibacterial agar diffusion assay (Example 2). Format: cell-based. The protocol:
as §4

The subject of data set [6] is Pseudomonas aeruginosa. As to the kind of experiment: Antibacterial micro-dilution assay (Example 1). Format: cell-based. To be noted: 24 hours, read-out: IC50 against Pseudomonas aeruginosa. The protocol:
as §1, §2
On the technique in general: Dilution methods test growth across graded concentrations, often in twofold steps.

The next data set concerns Escherichia coli. As to the kind of experiment: Antibacterial micro-dilution assay (Example 1). It is filed as cell-based. To be noted: 24 hours, read-out: IC50 against Escherichia coli. The protocol:
as §1, §2

Data set [7] concerns Staphylococcus aureus. As to the kind of experiment: Antibacterial micro-dilution assay (Example 1). Format: cell-based. To be noted: 24 hours, read-out: IC50 against Staphylococcus aureus. The protocol: as §1, §2
In the next data set the test system is Bacillus subtilis. As to the kind of experiment: Antibacterial micro-dilution assay (Example 1). Format: cell-based. To be noted: 24 hours, read-out: IC50 against Bacillus subtilis. The protocol: as §1, §2
Data set [8] in a line: Cytotoxicity assay (WST-8) against HCT116 cells. Format: cell-based. To be noted: human, HCT116 colorectal carcinoma cells, estimated. The protocol:
HCT116 (colorectal carcinoma) cells were seeded onto a 96-well plate at 10,000 cells per well. Cells were treated with either 5, 50, 500 or 5000 nM TM-025, TM-026, N-acetyl-glucosaminyl-3-aminoacetophenone or 5, 25, 50, 100 nM pactamycin in triplicate for 48 hours. For the narrow range concentration assays, cells were treated with either 0.5, 1, 2 or 4 μM TM-025; 1, 2, 3 or 5 μM TM-026; 0.5, 2, 5 or 7 μM N-acetylglucosaminyl-3-aminoacetophenone or 12.5, 25, 50, 100 nM pactamycin in triplicate for 24 or 48 hours. WST-8 [2-(2-methoxy-4-nitrophenyl)-3-[…], monosodium salt] (Dojindo, Rockville, Md.) was added to each well to give an orange-colored formazan product, which is soluble in tissue culture medium. Absorbance was measured at 450 nm. Percent of viable cells was calculated relative to the “No Treatment” and “Solvent Only” wells.

pIC50: −log10 of the molar value.

Regarding `CC(=O)c1cccc(N[C@H]2[C@H](N)[C@@](NC(=O)N(C)C)([C@H](C)O)[C@@](C)(O)[C@@]2(O)COC(=O)c2c(C)cccc2O)c1` [pactamycin], in [1], the “antibacterial activity in agar diffusion and micro-dilution assays (in words)” value was “strong antibacterial activity”. Moreover, the pIC50 (commonly the negative decadic logarithm of the IC50, by convention in mol/L) in [2] (read-out: Antimalarial IC50 (D6)) was around 7.62; in [3] (read-out: Antimalarial IC50 (Dd2)), around 7.68; with Pseudomonas aeruginosa [6], around 3.30; in the data set on Escherichia coli, around 4.00; in the data set on Staphylococcus aureus [7], around 5.00; in the data set on Bacillus subtilis it was around 3.30. Besides, in [8], the pIC50 was around 7.00. Further, the IC90 (usually the point of the concentration-response curve where the effect stands at 90%) in [2] (read-out: Antimalarial IC90 (D6)) was 124 nM; in data set [3] (read-out: Antimalarial IC90 (Dd2)) it was 187 nM. Besides, the “antibacterial activity, growth of E. coli” value with E. coli is recorded as “inhibited the growth”. Besides, the “antibacterial activity, growth of Pseudomonas aeruginosa” value in the data set with Pseudomonas aeruginosa [4] is listed as “inhibited the growth”. Moreover, the “antibacterial activity, growth of Mycobacterium smegmatis” value in the data set with Mycobacterium smegmatis was “inhibited the growth”. Besides, the “antibacterial activity, growth of Staphylococcus aureus” value with Staphylococcus aureus [5] is given as “inhibited the growth”.
